{
  "source": "patent US7300770B2",
  "about": "“Detection of microbe contamination on elastomeric articles” (Kimberly-Clark Worldwide, Inc., priority 2004, dated 2007)",
  "tested_on": "E. coli",
  "assay": "Dye-coated towel rubbed with dry E. coli colony",
  "settings": "dry colony rubbed onto pre-moistened coated towel",
  "experimental": "A test using the Reichardt's dye coated paper towel with a “dry” bacteria sample was carried out. Specifically, a dry sample of a colony of E. coli bacteria was lifted off an agar petri dish that contained a series of growing cultures. This dry sample was then rubbed onto a pre-moistened dye coated SCOTT® paper towel. The area where the colony was placed and rubbed turned colorless within 1 to 5 seconds.",
  "data": [
    {"smiles": "[O-]c1c(-c2ccccc2)cc(-[n+]2c(-c3ccccc3)cc(-c3ccccc3)cc2-c2ccccc2)cc1-c1ccccc1", "note": "[Reichardt's dye, 4-(2,4,6-triphenylpyridinium-1-yl)-2,6-diphenylphenolate]", "values": [
      {"measurement": "Time to turn colorless", "result": "1 to 5", "unit": "s"}
    ]}
  ]
}
